Test results published in the NIST ThermoML archive (doi:10.1007/s10765-010-0773-1).
± gives the expanded uncertainty stated by the source.

Assay: xn = mol fraction of the nth substance listed
Conditions: 101 kPa, Liquid; for mass density: Vibrating tube method; for speed of sound: Pulse-echo method

BrCBr [dibromomethane] + CCCCCCC
Conditions | mass density [kg/m3] | speed of sound [m/s]
288.15 K, x1 = 0.1019 | 779.65 ± 0.27 | –
288.15 K, x1 = 0.1838 | 861.49 ± 0.31 | –
288.15 K, x1 = 0.2536 | 937.65 ± 0.37 | –
288.15 K, x1 = 0.3055 | 998.83 ± 0.46 | –
288.15 K, x1 = 0.4064 | 1130.32 ± 0.67 | –
288.15 K, x1 = 0.5029 | 1274.13 ± 0.93 | –
288.15 K, x1 = 0.6023 | 1444.97 ± 0.95 | –
288.15 K, x1 = 0.6525 | 1541.56 ± 1 | –
288.15 K, x1 = 0.7016 | 1644.24 ± 1.1 | –
288.15 K, x1 = 0.8003 | 1878.69 ± 1.2 | –
288.15 K, x1 = 0.8961 | 2149.52 ± 1.5 | –
288.15 K, x1 = 1 | 2509.06 ± 1.9 | –
292.87 K, x1 = 1 | – | 960.63 ± 1.5
292.88 K, x1 = 0.9019 | – | 946.13 ± 1.5
292.89 K, x1 = 0.1062 | – | 1104 ± 1.6
292.89 K, x1 = 0.2032 | – | 1066.3 ± 1.6
292.89 K, x1 = 0.304 | – | 1032.1 ± 1.6
292.9 K, x1 = 0.405 | – | 1002.4 ± 1.6
292.9 K, x1 = 0.4998 | – | 979.49 ± 1.5
292.91 K, x1 = 0.7043 | – | 946.92 ± 1.5
292.91 K, x1 = 0.8031 | – | 941.84 ± 1.5
292.92 K, x1 = 0.6048 | – | 959.47 ± 1.5
293.14 K, x1 = 0.2536 | 932.03 ± 0.37 | –
293.14 K, x1 = 0.4064 | 1123.66 ± 0.65 | –
293.14 K, x1 = 0.6023 | 1436.76 ± 0.93 | –
293.14 K, x1 = 0.7016 | 1635.05 ± 1.1 | –
293.15 K, x1 = 0.1019 | 774.91 ± 0.26 | –
293.15 K, x1 = 0.1838 | 856.29 ± 0.31 | –
293.15 K, x1 = 0.3055 | 992.87 ± 0.45 | –
293.15 K, x1 = 0.5029 | 1266.74 ± 0.92 | –
293.15 K, x1 = 0.6525 | 1532.85 ± 0.99 | –
293.15 K, x1 = 0.8003 | 1868.4 ± 1.2 | –
293.15 K, x1 = 0.8961 | 2138.01 ± 1.4 | –
293.15 K, x1 = 1 | 2496.03 ± 1.9 | –
298.14 K, x1 = 0.1838 | 851.06 ± 0.3 | –
298.14 K, x1 = 0.2536 | 926.36 ± 0.37 | –
298.14 K, x1 = 0.3055 | 986.88 ± 0.45 | –
298.14 K, x1 = 0.6023 | 1428.45 ± 0.92 | –
298.14 K, x1 = 0.7016 | 1625.79 ± 1.1 | –
298.14 K, x1 = 0.8961 | 2126.46 ± 1.4 | –
298.15 K, x1 = 0.1019 | 770.15 ± 0.26 | –
298.15 K, x1 = 0.2032 | – | 1045.8 ± 1.6
298.15 K, x1 = 0.4064 | 1116.96 ± 0.65 | –
298.15 K, x1 = 0.5029 | 1259.28 ± 0.91 | –
298.15 K, x1 = 0.6525 | 1524.09 ± 0.98 | –
298.15 K, x1 = 0.8003 | 1858.05 ± 1.2 | –
298.15 K, x1 = 0.9019 | – | 931.96 ± 1.5
298.15 K, x1 = 1 | 2482.97 ± 1.8 | 947.15 ± 1.5
298.16 K, x1 = 0.1062 | – | 1082.4 ± 1.6
298.16 K, x1 = 0.304 | – | 1012.7 ± 1.6
298.17 K, x1 = 0.4998 | – | 962 ± 1.5
298.17 K, x1 = 0.8031 | – | 926.99 ± 1.5
298.18 K, x1 = 0.405 | – | 984.03 ± 1.5
298.18 K, x1 = 0.7043 | – | 931.29 ± 1.5
298.19 K, x1 = 0.6048 | – | 942.98 ± 1.5
303.11 K, x1 = 1 | – | 934.52 ± 1.5
303.13 K, x1 = 0.1062 | – | 1062.1 ± 1.6
303.13 K, x1 = 0.2032 | – | 1026.6 ± 1.6
303.13 K, x1 = 0.304 | – | 994.46 ± 1.5
303.13 K, x1 = 0.9019 | – | 918.63 ± 1.5
303.14 K, x1 = 0.6023 | 1420.11 ± 0.92 | –
303.14 K, x1 = 0.8031 | – | 913 ± 1.5
303.15 K, x1 = 0.1019 | 765.35 ± 0.26 | –
303.15 K, x1 = 0.1838 | 845.79 ± 0.3 | –
303.15 K, x1 = 0.2536 | 920.67 ± 0.37 | –
303.15 K, x1 = 0.3055 | 980.85 ± 0.45 | –
303.15 K, x1 = 0.405 | – | 966.75 ± 1.5
303.15 K, x1 = 0.4064 | 1110.22 ± 0.64 | –
303.15 K, x1 = 0.4998 | – | 945.56 ± 1.5
303.15 K, x1 = 0.5029 | 1251.79 ± 0.9 | –
303.15 K, x1 = 0.6525 | 1515.27 ± 0.97 | –
303.15 K, x1 = 0.7016 | 1616.48 ± 1 | –
303.15 K, x1 = 0.7043 | – | 916.56 ± 1.5
303.15 K, x1 = 0.8003 | 1847.66 ± 1.2 | –
303.15 K, x1 = 0.8961 | 2114.87 ± 1.4 | –
303.15 K, x1 = 1 | 2469.88 ± 1.8 | –
303.17 K, x1 = 0.6048 | – | 927.45 ± 1.5
308.1 K, x1 = 0.2032 | – | 1007.5 ± 1.6
308.1 K, x1 = 1 | – | 921.89 ± 1.5
308.11 K, x1 = 0.9019 | – | 905.33 ± 1.5
308.12 K, x1 = 0.1062 | – | 1041.9 ± 1.6
308.12 K, x1 = 0.304 | – | 976.3 ± 1.5
308.12 K, x1 = 0.4998 | – | 929.18 ± 1.5
308.13 K, x1 = 0.405 | – | 949.39 ± 1.5
308.13 K, x1 = 0.8031 | – | 899.01 ± 1.5
308.14 K, x1 = 0.6048 | – | 911.94 ± 1.5
308.14 K, x1 = 0.7043 | – | 901.84 ± 1.5
308.15 K, x1 = 0.1019 | 760.52 ± 0.26 | –
308.15 K, x1 = 0.1838 | 840.49 ± 0.3 | –
308.15 K, x1 = 0.2536 | 914.94 ± 0.37 | –
308.15 K, x1 = 0.3055 | 974.78 ± 0.45 | –
308.15 K, x1 = 0.4064 | 1103.44 ± 0.64 | –
308.15 K, x1 = 0.5029 | 1244.25 ± 0.9 | –
308.15 K, x1 = 0.6023 | 1411.72 ± 0.91 | –
308.15 K, x1 = 0.6525 | 1506.41 ± 0.97 | –
308.15 K, x1 = 0.7016 | 1607.12 ± 1 | –
308.15 K, x1 = 0.8003 | 1837.22 ± 1.1 | –
308.15 K, x1 = 0.8961 | 2103.24 ± 1.4 | –
308.15 K, x1 = 1 | 2456.76 ± 1.8 | –
313.14 K, x1 = 0.1019 | 755.67 ± 0.26 | –
313.14 K, x1 = 0.5029 | 1236.67 ± 0.89 | –
313.14 K, x1 = 0.6525 | 1497.49 ± 0.96 | –
313.15 K, x1 = 0.1838 | 835.16 ± 0.3 | –
313.15 K, x1 = 0.2536 | 909.16 ± 0.37 | –
313.15 K, x1 = 0.3055 | 968.68 ± 0.45 | –
313.15 K, x1 = 0.4064 | 1096.62 ± 0.63 | –
313.15 K, x1 = 0.6023 | 1403.28 ± 0.9 | –
313.15 K, x1 = 0.7016 | 1597.72 ± 1 | –
313.15 K, x1 = 0.8003 | 1826.75 ± 1.1 | –
313.15 K, x1 = 0.8961 | 2091.58 ± 1.4 | –
313.15 K, x1 = 1 | 2443.59 ± 1.8 | –
313.27 K, x1 = 1 | – | 908.83 ± 1.5
313.28 K, x1 = 0.2032 | – | 987.55 ± 1.5
313.28 K, x1 = 0.9019 | – | 891.54 ± 1.5
313.29 K, x1 = 0.1062 | – | 1021 ± 1.5
313.3 K, x1 = 0.304 | – | 957.58 ± 1.5
313.31 K, x1 = 0.405 | – | 931.52 ± 1.5
313.31 K, x1 = 0.4998 | – | 912.23 ± 1.5
313.31 K, x1 = 0.7043 | – | 886.55 ± 1.5
313.31 K, x1 = 0.8031 | – | 884.49 ± 1.5
313.32 K, x1 = 0.6048 | – | 895.85 ± 1.5
318.15 K, x1 = 0.1019 | 750.77 ± 0.26 | –
318.15 K, x1 = 0.1838 | 829.78 ± 0.3 | –
318.15 K, x1 = 0.2536 | 903.35 ± 0.36 | –
318.15 K, x1 = 0.3055 | 962.53 ± 0.44 | –
318.15 K, x1 = 0.4064 | 1089.75 ± 0.63 | –
318.15 K, x1 = 0.5029 | 1229.04 ± 0.88 | –
318.15 K, x1 = 0.6023 | 1394.79 ± 0.89 | –
318.15 K, x1 = 0.6525 | 1488.53 ± 0.95 | –
318.15 K, x1 = 0.7016 | 1588.27 ± 1 | –
318.15 K, x1 = 0.8003 | 1816.27 ± 1.1 | –
318.15 K, x1 = 0.8961 | 2079.95 ± 1.4 | –
318.15 K, x1 = 1 | 2430.37 ± 1.8 | –
